Source: PubChem BioAssay (NCI)
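Cultured in 96-well plates, cells were exposed to test compound for 48 hours across five concentrations. At the GI50, growth is halved. TGI is the concentration that stops growth completely.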

Tests used:
Test in all cases: growth of human tumour cells (NCI), 48 h
[1] = system: SK-OV-3 ovarian
[2] = system: HCC-2998 colon
[3] = system: HT29 colon
[4] = system: RPMI-8226 leukemia
[5] = system: ACHN renal
[6] = system: SF-268 CNS
[7] = system: SW-620 colon
[8] = system: MOLT-4 leukemia
[9] = system: CCRF-CEM leukemia
[10] = system: MDA-MB-231 breast

`Cc1nn(-c2nc3ccccc3s2)c2c1C(=O)c1ccccc1-2` showed a TGI [1] greater than 100 µM, a TGI [2] greater than 100 µM and a TGI [3] greater than 100 µM. For the same molecule, the TGI [4] was greater than 100 µM, the TGI [5] was greater than 100 µM and the TGI [6] was greater than 100 µM. It also gave a TGI [7] greater than 100 µM.

Work on `OC1C2CCC1C1C3C=CC(C3)C21` (stereo not drawn) yielded a TGI [1] greater than 100 µM, a TGI [8] greater than 100 µM and a TGI [3] greater than 100 µM. It also gave a TGI [4] greater than 100 µM, a TGI [5] greater than 100 µM and a TGI [6] greater than 100 µM. The TGI [7] was greater than 100 µM and the TGI [9] was greater than 100 µM.

For `CSc1ncnc2c1ncn2C1OC(CO)C(O)OC1O` (stereo not drawn), the TGI [1] was greater than 100 µM, the TGI [8] was 30.1 µM and the TGI [3] was greater than 37.4 µM. The TGI [10] was 14.6 µM, the TGI [4] was 79.5 µM and the TGI [5] was greater than 100 µM. For the same molecule, the TGI [6] was greater than 100 µM, the TGI [7] was greater than 100 µM and the TGI [9] was 0.402 µM.

`C=C(CN1CCN(c2cccc(C(F)(F)F)n2)CC1)c1ccc(C(=S)Nc2ccccc2N)cc1` gave a GI50 [8] of 2.1 µM, a TGI [8] of 6.4 µM and a GI50 [2] of 5.74 µM. It also gave a TGI [2] greater than 100 µM, a GI50 [3] of 3.05 µM and a TGI [3] of 18.2 µM. It also gave a GI50 [10] of 2520 nM, a TGI [10] of 8.9 µM and a GI50 [5] of 3.88 µM. For the same molecule, the TGI [5] was greater than 100 µM, the GI50 [6] was 8.08 µM and the TGI [6] was greater than 100 µM. For the same molecule, the GI50 [7] was 4.07 µM and the TGI [7] was 72.2 µM.

Work on `C[n+]1ccc(-c2c3nc(c(-c4cc[n+](C)cc4)c4ccc([n-]4)c(-c4cc[n+](C)cc4)c4nc(c(-c5cc[n+](C)cc5)c5ccc2[n-]5)C=C4)C=C3)cc1.[I-].[Zn+2]` yielded a GI50 [1] of 33 µM, a TGI [1] of 69.5 µM and a GI50 [8] of 28.4 µM. For the same molecule, the TGI [8] was greater than 100 µM, the GI50 [2] was 49.6 µM and the TGI [2] was greater than 100 µM. The GI50 [4] was 32.1 µM, the TGI [4] was greater than 100 µM and the GI50 [5] was 15.5 µM. It also gave a TGI [5] of 36.2 µM, a GI50 [6] of 11 µM and a TGI [6] of 25.9 µM. It also gave a GI50 [7] of 24.1 µM, a TGI [7] of 45.7 µM and a GI50 [9] of 14.1 µM. It also gave a TGI [9] of 44.5 µM.

`c1ccc2c(c1)[nH]c1c2nc2ncccn21` was tested, and the TGI [1] was greater than 100 µM, the TGI [8] was greater than 100 µM and the TGI [2] was greater than 100 µM. For the same molecule, the TGI [3] was greater than 100 µM, the TGI [5] was greater than 100 µM and the TGI [6] was greater than 100 µM. It also gave a TGI [7] greater than 100 µM and a TGI [9] greater than 100 µM.

`O=C(NCC(O)CNC(=O)C(F)(F)F)C(F)(F)F` was tested, and the TGI [1] was greater than 100 µM, the TGI [8] was greater than 100 µM and the TGI [2] was greater than 100 µM. For the same molecule, the TGI [3] was greater than 100 µM, the TGI [4] was greater than 100 µM and the TGI [6] was greater than 100 µM. For the same molecule, the TGI [7] was greater than 100 µM and the TGI [9] was greater than 100 µM.

`O=C1c2ccccc2C(=O)N1C/C=C/CO` gave a TGI [1] greater than 100 µM, a TGI [8] greater than 100 µM and a TGI [2] greater than 100 µM. For the same molecule, the TGI [4] was greater than 100 µM, the TGI [5] was greater than 100 µM and the TGI [6] was greater than 100 µM. For the same molecule, the TGI [7] was greater than 100 µM and the TGI [9] was greater than 100 µM.

`OCC1OC(n2cnc3c(Cl)nc(Cl)cc32)C(O)C1O` (stereo not drawn) showed a GI50 [1] greater than 100 µM, a TGI [1] greater than 100 µM and a GI50 [8] greater than 100 µM. It also gave a TGI [8] greater than 100 µM, a GI50 [2] greater than 100 µM and a TGI [2] greater than 100 µM. The GI50 [3] was greater than 100 µM, the TGI [3] was greater than 100 µM and the GI50 [4] was greater than 100 µM. The TGI [4] was greater than 100 µM, the GI50 [5] was greater than 100 µM and the TGI [5] was greater than 100 µM. The GI50 [6] was greater than 100 µM, the TGI [6] was greater than 100 µM and the GI50 [7] was greater than 100 µM. For the same molecule, the TGI [7] was greater than 100 µM, the GI50 [9] was greater than 100 µM and the TGI [9] was greater than 100 µM.

`N#C/C(=C/Sc1ccccc1)C(=O)O` gave a TGI [1] greater than 100 µM, a TGI [8] greater than 100 µM and a TGI [3] of 84.1 µM. It also gave a TGI [4] greater than 100 µM, a TGI [5] greater than 100 µM and a TGI [6] of 53.7 µM. For the same molecule, the TGI [7] was greater than 100 µM and the TGI [9] was greater than 100 µM.

`COc1cc2c(cc1OC)C(=O)Cc1ccc(OC)c(OC)c1CN(C)CC2` gave a TGI [1] greater than 100 µM, a TGI [8] greater than 100 µM and a TGI [2] greater than 100 µM. For the same molecule, the TGI [3] was greater than 100 µM, the TGI [4] was greater than 100 µM and the TGI [5] was greater than 100 µM. The TGI [6] was greater than 100 µM, the TGI [7] was greater than 100 µM and the TGI [9] was greater than 100 µM.

`O=c1oc(=O)c2oc3ccccc3oc1=2` showed a TGI [1] greater than 100 µM, a TGI [8] greater than 100 µM and a TGI [2] greater than 100 µM. For the same molecule, the TGI [3] was greater than 100 µM, the TGI [5] was greater than 100 µM and the TGI [6] was greater than 100 µM. The TGI [7] was greater than 100 µM and the TGI [9] was greater than 100 µM.

Work on `Clc1cc2n[se]nc2cc1Cl` yielded a TGI [1] greater than 100 µM, a TGI [8] greater than 100 µM and a TGI [2] greater than 100 µM. It also gave a TGI [3] greater than 100 µM, a TGI [4] greater than 100 µM and a TGI [5] greater than 100 µM. It also gave a TGI [6] greater than 100 µM, a TGI [7] greater than 100 µM and a TGI [9] greater than 100 µM.

Work on `CCOC(=O)c1ccc(NC(=O)SCCC(=O)O)cc1` yielded a TGI [8] greater than 100 µM, a TGI [2] greater than 100 µM and a TGI [3] greater than 100 µM. The TGI [4] was greater than 100 µM, the TGI [5] was greater than 100 µM and the TGI [6] was 54 µM. The TGI [7] was greater than 100 µM and the TGI [9] was greater than 100 µM.

`O=C(COC(=O)c1cccc2c(=O)c3ccccc3[nH]c12)Nc1ccccc1` showed a TGI [1] greater than 100 µM, a TGI [8] of 43.8 µM and a TGI [2] greater than 100 µM. It also gave a TGI [3] greater than 100 µM, a TGI [4] of 83.5 µM and a TGI [5] greater than 100 µM. For the same molecule, the TGI [6] was greater than 100 µM and the TGI [7] was greater than 100 µM.

`CCOc1ccccc1NC(=O)CCc1n[nH]c(=S)o1` showed a TGI [1] greater than 100 µM, a TGI [8] greater than 100 µM and a TGI [3] greater than 100 µM. For the same molecule, the TGI [4] was greater than 100 µM, the TGI [5] was greater than 100 µM and the TGI [6] was greater than 100 µM. It also gave a TGI [7] greater than 100 µM and a TGI [9] greater than 100 µM.

In the case of `Cc1nn(C)cc1P(=S)(c1ccccc1)c1ccccc1`, the TGI [1] is reported as greater than 100 µM, the TGI [8] is reported as greater than 100 µM and the TGI [2] is reported as greater than 100 µM. For the same molecule, the TGI [3] was greater than 100 µM, the TGI [4] was greater than 100 µM and the TGI [5] was greater than 100 µM. It also gave a TGI [6] greater than 100 µM, a TGI [7] greater than 100 µM and a TGI [9] greater than 100 µM.
